Experimental data from patent US12357615B2, “Compositions for the treatment of brain tumors” (Kembi Therapeutics Pty Ltd, priority 2018, dated 2025).

Legend:
[1] = test system: T98G AR positive glioblastoma multiforme cell line; assay: GBM tumor cell line inhibition assay (colony formation), T98G; format: cell-based; settings: Homo sapiens; T98 (T98G), AR positive GBM cells, 10-12 days; read-out: GI50 (growth inhibition, colony formation)
Protocol: (§1) The term “percent colony formation” as used herein is the number of colonies after treatment with seviteronel and normalized to the number of colonies formed in the absence of seviteronel.
(§2) AR positive and AR negative GBM cells were plated at clonal density and 1-2 days later were treated with the test compounds at the indicated concentrations. After 10-12 days, the plates were stained with crystal violet. The number of colonies were then counted and normalized to the number of colonies formed in the absence of the test compounds. The results were plotted using Graphpad Prism.

[2] = test system: 8MGBA AR negative glioblastoma multiforme cell line; assay: GBM tumor cell line inhibition assay (colony formation), 8MGBA; format: cell-based; settings: AR negative GBM cells
Protocol: as §1, §2

[3] = test system: AM38 AR negative glioblastoma multiforme cell line; assay: GBM tumor cell line inhibition assay (colony formation), AM38; format: cell-based; settings: AM38, AR negative GBM cells
Protocol: as §1, §2

[4] = test system: LN18 AR positive cell line; assay: Clonogenic survival after radiation with seviteronel, LN18; format: cell-based; settings: 2.5 μM seviteronel 24 hours before radiation 0-8 Gy
Source text: (§3) The term “surviving fraction” as used herein is the fraction of cells that retain their reproductive integrity after radiation normalized to the fraction of cells seeded and the colonies formed in the absence of irradiation
(§4) The term “enhancement ratio” as used herein is the ratio of the Dmid (the area under the radiation survival curve, which reflects the effectiveness of radiation) in the absence of seviteronel divided by the Dmid in the presence of seviteronel.
(§5) AR positive or negative GBM cell lines were treated with seviteronel (2.5-5 uM) for 24 hours prior to treatment with a single fraction of ionizing radiation (0-8 Gy) and then replated at clonal density. After 10-14 days, cells were stained with crystal violet and colonies were counted and normalized to conditions without radiation. Enhancement ratios were calculated by dividing the Dmid (the area under the clonogenic-survival curve) of control conditions by the Dmid of the seviteronel-treated cells.

[5] = test system: T98G AR positive cell line; assay: Clonogenic survival after radiation with seviteronel, T98G; format: cell-based; settings: 5 μM seviteronel 24 hours before radiation 0-8 Gy
Source text: as §3, §4, §5

[6] = test system: 8MGBA AR negative cell line; assay: Clonogenic survival after radiation with seviteronel, 8MGBA; format: cell-based; settings: seviteronel 2.5-5 uM 24 hours before radiation 0-8 Gy
Source text: as §3, §4, §5

[7] = test system: AM38 AR negative cell line; assay: Clonogenic survival after radiation with seviteronel, AM38; format: cell-based; settings: seviteronel 2.5-5 uM 24 hours before radiation 0-8 Gy
Source text: as §3, §4, §5

T98G xenograft [8] = assay: Mouse T98G xenograft model, seviteronel and radiation therapy; format: in vivo
Protocol: T98G cancer cells were implanted into the flanks of DHT-bearing female C.B-17 SCID mice. After tumors reached approximately 100 mm3 in size, tumors were randomized into control, seviteronel alone (75 mg/kg for 30 days), radiation alone (2 Gy×6 fractions), or combined radiation and seviteronel treatment groups. Tumor size was measured over time and time to tumor doubling was estimated using the Kaplan-Meyer method. The results were plotted using Graphpad Prism.

T98G xenograft [9] = settings: implanted DHT pellets versus no DHT, female C.B-17 SCID mice
Protocol: T98G cancer cells were implanted into the flanks female C.B-17 SCID mice with or without implanted DHT pellets. Tumor size was measured over time. The results were plotted using Graphpad Prism.

Row | Compound | GI50 [1] [µM] | effect on growth [2] | effect on growth [3] | enhancement ratio (Dmid without / with seviteronel) [4] | enhancement ratio (Dmid without / with seviteronel) [5] | enhancement ratio (Dmid without / with seviteronel) [6] | enhancement ratio (Dmid without / with seviteronel) [7] | tumor volume increase over 35 days (T98G xenograft [8]; seviteronel 75 mg/kg days 1-30 plus radiation therapy 2 Gy x 6 fractions days 2-7) | mice with doubling in tumor volume after 30 days (T98G xenograft [8]; seviteronel 75 mg/kg plus radiation therapy 2 Gy x 6 fractions) | tumor volume increase over 35 days (T98G xenograft [8]; seviteronel alone, 75 mg/kg for 30 days, untreated approximately 5 fold) | time to tumor doubling (T98G xenograft [8]; seviteronel alone, 75 mg/kg for 30 days, untreated within 15 days) [days] | tumor volume over time (T98G xenograft [9])
1 | CC(C)[C@](O)(c1ccc2cc(OC(F)F)c(OC(F)F)cc2c1)c1c[nH]nn1 [seviteronel] | 4 | little to no effect | little to no effect | 1.5 | 1.32 | 1.0 | 1.03 | approximately 50% | none | 2-3 fold | ≤ 30 | –
2 | C[C@]12CCC(=O)C[C@@H]1CC[C@@H]1[C@@H]2CC[C@]2(C)[C@@H](O)CC[C@@H]12 [DHT, Dihydrotestosterone] | – | – | – | – | – | – | – | – | – | – | – | increased more rapidly
